Results from patent US10415054B2, “Designer circuit controlling diet-induced obesity” (ETH ZURICH, priority 2013, dated 2019).

Legend:
[1] = biological target: T1, lipid-sensing receptor (LSR; TtgR-PPARα) (UniProt Q07869+Q9AIU0); test: Fatty acid/fibrate-controlled SEAP expression in pKR135/pMG10-transgenic HT-1080; type: cell-based, human; conditions: for sensitivity of LSR (SEAP expression): pKR135/pMG10-transgenic HT-1080, 48 h, FIG. 3d,e
T1 construct: TtgR (phloretin-responsive repressor of Pseudomonas putida DOT-T1E); expressed in transfected cells; host or cells: HT-1080 (A1, A5; in A5 microencapsulated and implanted into mice); several rodent, primate and human cell lines (A2)
T1 sequence (Q9AIU0+Q07869 with tags, fused parts or gaps): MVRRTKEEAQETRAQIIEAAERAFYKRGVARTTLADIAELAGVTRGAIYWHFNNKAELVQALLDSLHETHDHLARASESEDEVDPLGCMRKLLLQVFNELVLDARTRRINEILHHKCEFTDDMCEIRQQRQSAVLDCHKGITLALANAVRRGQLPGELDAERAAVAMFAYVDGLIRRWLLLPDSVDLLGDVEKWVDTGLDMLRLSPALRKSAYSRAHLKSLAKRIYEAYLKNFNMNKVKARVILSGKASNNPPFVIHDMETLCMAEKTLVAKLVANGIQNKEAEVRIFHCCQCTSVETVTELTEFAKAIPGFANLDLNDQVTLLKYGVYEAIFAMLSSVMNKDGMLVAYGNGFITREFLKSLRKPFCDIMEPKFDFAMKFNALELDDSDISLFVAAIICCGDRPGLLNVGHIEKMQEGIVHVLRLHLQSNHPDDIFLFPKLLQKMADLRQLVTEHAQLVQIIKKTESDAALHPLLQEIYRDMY
Description: Wild-type Chinese hamster ovary cells (CHO-K1, ATCC: CCL-61) were cultured in ChoMaster® HTS (Cell Culture Technologies GmbH, Gravesano, Switzerland) containing 1% penicillin/streptomycin. All cell types were cultivated at 37° C. in a humidified atmosphere containing 5% CO2. […] After transfection, all cells were cultivated in their specific media containing different inducer concentrations and reporter protein levels were profiled after 48 h unless stated otherwise. […]

[2] = biological target: T2, LSR sensor device (UniProt Q07869+Q9AIU0); test: Serum SEAP in wild type mice implanted with microencapsulated pKR135/pMG10-transgenic HT-1080; type: in vivo; conditions: wild type mice on standard diet, 48 h, FIG. 4a,b
T2 construct: TtgR (phloretin-responsive repressor of Pseudomonas putida DOT-T1E); expressed in transfected cells; host or cells: HT-1080 (A1, A5; in A5 microencapsulated and implanted into mice); several rodent, primate and human cell lines (A2)
T2 sequence (Q9AIU0+Q07869 with tags, fused parts or gaps): T1 sequence (Q9AIU0+Q07869 with tags, fused parts or gaps)
Text: (a-d) Standard low fat-fed wild type mice were implanted with microencapsulated pKR135-/pMG10-transgenic HT-1080 (2×10^6 cells/mouse) and received different doses of linoleic acid (LA) and palmitic acid (PA) (fatty acids, FA) (a), rapeseed oil (RO) (b) or were put on standard low fat (LF, 5 kcal % fat), medium fat (MF, 10 kcal % fat) and high fat (HF, 60 kcal % fat) diets (D) (c, d). Resulting blood SEAP (bSEAP) levels (a, b, d) and blood fat levels (BF) represented by serum cholesterol (C) and phospholipid (PL) concentrations (c) were quantified after 48 h (a, b, d) or 72 h (c). Data are mean±SEM, statistics by two-tailed t test; n=8 mice. *P<0.05, **P<0.005, ***P<0.0001 vs. zero lipid doses (a,b) or LF mice (c,d).
Production of the human placental secreted alkaline phosphatase (SEAP) in culture was quantified according to a p-nitrophenylphosphate-based time course of light absorbance (Schlatter S. et al., Gene 282, 19-31 (2002)). Serum levels of SEAP were quantified using a chemiluminescence-based assay (Roche Diagnostics GmbH, Mannheim, Germany). […]

[3] = biological target: T1, lipid-sensing receptor (LSR; TtgR-PPARα); test: Linoleic acid-induced SEAP expression in different cell lines cotransfected with pKR135/pMG10; type: cell-based; conditions: several rodent, primate and human cell lines, 48 h, FIG. 2
Description: Linoleic acid-induced SEAP expression in different cell lines. Cells were cotransfected with the LSR-encoding expression vector (pKR135; PhCMV-LSR-pA) and the PTtgR1-driven SEAP expression plasmid (pMG10; […]), grown in the presence of different linoleic acid (LA) concentrations, and SEAP levels were profiled in the culture supernatant after 48 h.
(§1) Human embryonic kidney cells (HEK-293T, ATCC: CRL-11268), Baby hamster kidney cells (BHK-21, ATCC: CCL-10), African green monkey kidney cells (COS-7, ATCC: CRL-1651), human cervical adenocarcinoma cells (HeLa, ATCC: CCL-2), human fibrosarcoma cells (HT-1080, ATCC: CCL-121) and immortalized human mesenchymal stem cells (hMSC) (Simonsen, J. L. et al., Nat Biotechnol 20, 592-596 (2002)) were cultivated in Dulbecco's modified Eagle's medium (DMEM; Invitrogen, Basel, Switzerland) supplemented with 1% (v/v) penicillin/streptomycin solution (Sigma-Aldrich, Munich, Germany). […]
(§2) Production of the human placental secreted alkaline phosphatase (SEAP) in culture was quantified according to a p-nitrophenylphosphate-based time course of light absorbance (Schlatter S. et al., Gene 282, 19-31 (2002)). Serum levels of SEAP were quantified using a chemiluminescence-based assay (Roche Diagnostics GmbH, Mannheim, Germany).

[4] = biological target: T3, TtgA1 (TtgR-VP16) (Pseudomonas putida, UniProt Q9AIU0); test: Phloretin-responsive gene switch (pMG10/pMG11) in HT-1080 exposed to linoleic acid; type: cell-based; conditions: HT-1080 pMG10/pMG11, 48 h, FIG. 6
T3 construct: expressed in transfected cells; host or cells: HT-1080
Description: HT-1080 were cotransfected with the components encoding the phloretin-responsive gene switch (pMG10, (PTtgR1-SEAP-pA) and pMG11, (PSV40-TtgA1-pA)) and grown for 48 h in the presence of increasing linoleic acid (LA) concentrations before SEAP was profiled in the cell culture supernatant.
as §1, with “Germany). Wild-type Chinese hamster ovary cells (CHO-K1, ATCC: CCL-61) were cultured in ChoMaster® HTS (Cell Culture Technologies GmbH, Gravesano, Switzerland) containing 1% penicillin/streptomycin.” for “Germany).”
as §2

SMILES | sensitivity of LSR (SEAP expression) [1] | other results
CCCCCCCCCCCCCCCC(=O)O [palmitic acid] | sensitive | SEAP in serum [2]: significant dose-dependent increase
Cc1cccc(Nc2cc(Cl)nc(SCC(=O)O)n2)c1C [WY-14643] | sensitive | 
CCCCC/C=C\C/C=C\C/C=C\C/C=C\CCCC(=O)O [arachidonic acid] | sensitive | 
CCCCCCCCCCCCCCCCCC(=O)O [stearic acid] | sensitive | 
CCCCCCCC/C=C\CCCCCCCC(=O)O [oleic acid] | sensitive | 
Cc1ccc(C)c(OCCCC(C)(C)C(=O)O)c1 [gemfibrozil] | sensitive | 
CCCCC/C=C\C/C=C\CCCCCCCC(=O)O [linoleic acid] | sensitive | SEAP induction [3]: SEAP was exclusively induced; SEAP in serum [2]: significant dose-dependent increase; sensitivity of the phloretin-responsive control element (SEAP) [4]: Insensitivity
CCCCCCCCCCCC(=O)O [lauric acid] | sensitive | 
O=C(CCc1ccc(O)cc1)c1c(O)cc(O)cc1O [phloretin] |  | phloretin-triggered effect on fatty acid-induced transgene (SEAP) expression ([1]; HT-1080 induced by 100 μM linoleic acid, 48 h, FIG. 3c): shut down transgene expression
CCCCCCCCCCCCCC(=O)O [myristic acid] | sensitive | 
